For 44 compounds, IC50 results are on record in US20250197382A1, “KIF18A INHIBITOR” (WIGEN BIOMEDICINE TECHNOLOGY (SHANGHAI) CO., LTD., priority 2022, published 2025).

In general, IC50 refers to the concentration at which inhibition is half-maximal.

The target of experiment [1] is Recombinant human KIF18A (1-467His-tagged) protein (Homo sapiens (Human), UniProt Q8NI77). Description: KIF18A enzyme assay (microtubule-stimulated ATPase activity, ADP-Glo). It is filed as biochemical. To be noted: 30 nM KIF18A, ATP 75 μM, read-out: inhibitory activity against KIF18A IC50. An outline of the steps: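 Baculovirus-expressed human KIF18A (1-467, His-tagged; 30 nM) preincubated 15 min at room temperature with compound (22-point 2-fold series) in pH 7.5 Tris buffer containing 30 μg/mL pig microtubules and 1 μM paclitaxel.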
Recombinant human KIF18A (1-467His-tagged) protein, sequence (Q8NI77 1-467): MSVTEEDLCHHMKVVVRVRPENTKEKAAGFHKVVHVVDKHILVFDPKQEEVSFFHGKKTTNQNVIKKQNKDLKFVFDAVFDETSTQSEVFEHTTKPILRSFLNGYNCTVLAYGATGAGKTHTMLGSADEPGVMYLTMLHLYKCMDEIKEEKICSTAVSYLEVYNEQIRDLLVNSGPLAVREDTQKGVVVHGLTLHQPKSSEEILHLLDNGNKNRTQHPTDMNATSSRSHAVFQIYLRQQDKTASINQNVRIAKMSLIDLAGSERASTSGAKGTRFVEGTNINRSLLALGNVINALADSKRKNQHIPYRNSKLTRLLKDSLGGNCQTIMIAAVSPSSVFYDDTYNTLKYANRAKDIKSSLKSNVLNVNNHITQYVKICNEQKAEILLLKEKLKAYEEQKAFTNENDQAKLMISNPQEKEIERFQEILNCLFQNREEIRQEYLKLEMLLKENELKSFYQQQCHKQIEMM
Recombinant human KIF18A (1-467His-tagged) protein, sequence (P02550 whole entry partner): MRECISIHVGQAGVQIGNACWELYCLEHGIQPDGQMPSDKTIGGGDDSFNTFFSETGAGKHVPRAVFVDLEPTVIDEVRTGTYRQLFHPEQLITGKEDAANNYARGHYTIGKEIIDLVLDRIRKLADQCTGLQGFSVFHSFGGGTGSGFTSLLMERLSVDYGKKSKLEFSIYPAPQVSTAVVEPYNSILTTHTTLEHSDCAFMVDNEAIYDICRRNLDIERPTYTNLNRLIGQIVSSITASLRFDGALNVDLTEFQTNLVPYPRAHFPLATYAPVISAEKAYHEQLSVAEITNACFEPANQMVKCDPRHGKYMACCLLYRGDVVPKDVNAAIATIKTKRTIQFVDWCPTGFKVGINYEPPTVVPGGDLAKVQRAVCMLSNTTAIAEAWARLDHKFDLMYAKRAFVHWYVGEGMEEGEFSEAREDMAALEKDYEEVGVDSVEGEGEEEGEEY
Recombinant human KIF18A (1-467His-tagged) protein, sequence (P02554 whole entry partner): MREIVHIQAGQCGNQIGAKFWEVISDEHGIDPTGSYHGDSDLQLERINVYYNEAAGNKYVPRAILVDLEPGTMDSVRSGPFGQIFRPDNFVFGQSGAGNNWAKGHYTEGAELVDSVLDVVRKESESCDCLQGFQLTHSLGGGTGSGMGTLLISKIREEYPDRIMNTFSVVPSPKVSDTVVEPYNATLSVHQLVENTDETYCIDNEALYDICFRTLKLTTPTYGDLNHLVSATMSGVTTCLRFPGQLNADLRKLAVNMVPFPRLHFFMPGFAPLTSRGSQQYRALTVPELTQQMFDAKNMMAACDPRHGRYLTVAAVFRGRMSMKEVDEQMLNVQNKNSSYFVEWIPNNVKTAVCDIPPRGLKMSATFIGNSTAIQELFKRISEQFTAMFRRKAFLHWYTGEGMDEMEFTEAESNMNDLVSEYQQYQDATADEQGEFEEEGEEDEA

The next experiment concerns HCT116 cells. Description: In vitro anti-proliferative activity against HCT116 cells (intracellular ATP content, 72 h). The settings on record: Homo sapiens, HCT-116, 72 h after dosing. In kind it is cell-based. The method, then: Biological Example 3. In Vitro Anti-Proliferative Activity of Compounds of the Present Invention Against HCT116 Cells
HCT116 cells were seeded on a 384-well plate at 3000 cells/well. After overnight adherence culture, DMSO or the compounds serially diluted in a 1:5 ratio from 5 μM were added. The viability was assessed 72 h after dosing by measuring the intracellular ATP content. The inhibition percentages of viable cells by the compounds were calculated by comparing with the DMSO group, and the IC50 values were also calculated.

The subject of another experiment is HT-29 cells. The experiment is described as follows: In vitro anti-proliferative activity against HT-29 cells (intracellular ATP content, 72 h). In kind it is cell-based. To be noted: Homo sapiens, 72 h after dosing. The method, then: Biological Example 2. In Vitro Anti-Proliferative Activity of Compounds of the Present Invention Against HT-29 Cells
HT-29 cells were seeded on a 384-well plate at 3000 cells/well. After overnight adherence culture, DMSO or the compounds serially diluted in a 1:5 ratio from 5 μM were added. The viability was assessed 72 h after dosing by measuring the intracellular ATP content. The inhibition percentages of viable cells by the compounds were calculated by comparing with the DMSO group, and the […] values were also calculated.

The structures appear in SMILES notation.

Take `C[C@@H]1CN(c2cc(NC(=O)c3ccc(NS(=O)(=O)CCO)cc3N3CCC4(CC3)CC4)cc3c2OCC3)CCO1` [Compound 2]: the IC50 in experiment [1] was at most 100 nM; in the experiment with HCT116 cells it was above 10000 nM.
As for `O=C(Nc1cc2cccnc2c(N2CCC(F)(F)CC2)n1)c1ccc(NS(=O)(=O)CCO)cc1N1CCC2(CC1)CC2` [Compound 583], the results for the IC50 with HT-29 cells and with HCT116 cells were 38 nM and above 10000 nM, respectively.
`O=C(Nc1cc2c(c(OCCC(F)(F)F)n1)OCC2)c1ccc(NS(=O)(=O)CCO)cc1N1CCC2(CC1)CC2` [Compound 69]: the 50% inhibitory concentration (IC50) in experiment [1] is at most 100 nM; in the experiment on HT-29 cells, 71 nM; with HCT116 cells, above 10000 nM.
Turning to `O=C(Nc1ccc(NS(=O)(=O)CCO)cc1N1CCC2(CC1)CC2)c1cc2cccnc2c(N2CCC(F)(F)CC2)n1` [Compound 584], the IC50 in the experiment with HT-29 cells is 70 nM; with HCT116 cells, above 10000 nM.
Regarding `O=C(Nc1cc2c(c(N3CC(F)(F)C3)c1)OCC2)c1ccc(NS(=O)(=O)CCO)cc1N1CCC2(CC1)CC2` [Compound 4], the IC50 in experiment [1] is at most 100 nM; in the experiment with HT-29 cells, 63 nM; with HCT116 cells, above 10000 nM.
With `C[C@H]1CN(c2cc(NC(=O)c3ccc(NS(=O)(=O)CCO)cc3N3CCC4(CC3)CC4)cc3c2OCC3)CCO1` [Compound 3], the concentration for half-maximal inhibition (IC50) was at most 100 nM in experiment [1] and above 10000 nM in the experiment on HCT116 cells.
As for `O=C(Nc1cc2c(c(N3CCC(F)(F)CC3)c1)OCC2)c1ccc(NS(=O)(=O)CCO)cc1N1CCC2(CC1)CC2` [Compound 1], the values for the half-inhibitory concentration (IC50) (in experiment [1]; in the experiment on HT-29 cells; in the experiment with HCT116 cells) were at most 100 nM, 9 nM and above 10000 nM, respectively.
As to `O=C(Nc1cc2c(c(N3CCC(F)(F)CC3)n1)OCC2)c1ccc(S(=O)(=O)NCCO)cc1N1CCC2(CC1)CC2` [Compound 81], the results for the IC50 (in experiment [1]; with HT-29 cells; in the experiment on HCT116 cells) were at most 100 nM, 51 nM and above 10000 nM, respectively.
`Cc1cc(NC(=O)c2ccc(NS(=O)(=O)CCO)cc2N2CCC3(CC2)CC3)nc(N2CCC(F)(F)CC2)n1` [AMG650, reference compound]: the IC50 was 89 nM in the experiment with HT-29 cells and above 10000 nM with HCT116 cells.
In the case of `O=C(Nc1cc(N2CCC(F)(F)CC2)c2ncccc2c1)c1ccc(NS(=O)(=O)CCO)cc1N1CCC2(CC1)CC2` [Compound 530], the IC50 in experiment [1] was at most 100 nM; with HT-29 cells, 36 nM; in the experiment on HCT116 cells, above 10000 nM.
Turning to `O=C(Nc1cc2c(c(N3CCC4(CC4)C3)c1)OCC2)c1ccc(NS(=O)(=O)CCO)cc1N1CCC2(CC1)CC2` [Compound 6], the IC50 was at most 100 nM in experiment [1] and above 10000 nM in the experiment with HCT116 cells.
The corresponding values for `Cn1ccc2cc(NC(=O)c3ccc(NS(=O)(=O)CCO)cc3N3CCC4(CC3)CC4)cc(N3CCC(F)(F)CC3)c21` [Compound 385] are at most 100 nM and above 10000 nM.
In the case of `O=C(Nc1cc2c(c(N3CC(F)(F)C3)n1)OCC2)c1ccc(NS(=O)(=O)CCO)cc1N1CCC2(CC1)CC2` [Compound 68], the half-maximal inhibitory concentration (IC50) in experiment [1] is at most 100 nM; with HT-29 cells, 51 nM; with HCT116 cells, above 10000 nM.
In the case of `O=C(Nc1cc2c(c(N3CCC4(CC4)C3)n1)OCC2)c1ccc(NS(=O)(=O)CCO)cc1N1CCC2(CC1)CC2` [Compound 70], the IC50 is at most 100 nM in experiment [1] and above 10000 nM with HCT116 cells.
For `O=C(Nc1ccc(NS(=O)(=O)CCO)cc1N1CCC2(CC1)CC2)c1cc2c(c(OCCC(F)(F)F)c1)OCC2` [Compound 5], the IC50 was 88 nM in the experiment on HT-29 cells and above 10000 nM in the experiment on HCT116 cells.
For the compound `O=C(Nc1cc2c(c(N3CCC(F)(F)CC3)n1)OCC2)c1ccc(NS(=O)(=O)CCO)cc1N1CCC2(CC1)CC2` [Compound 65], the IC50 in experiment [1] was at most 100 nM; in the experiment with HT-29 cells it was 8 nM; in the experiment on HCT116 cells it was above 10000 nM.
Regarding `O=C(Nc1ccc(NS(=O)(=O)CCO)cc1N1CCC2(CC1)CC2)c1cc2c(c(N3CCC(F)(F)CC3)c1)OCC2` [Compound 33], the IC50 was at most 100 nM in experiment [1], 52 nM in the experiment with HT-29 cells and above 10000 nM in the experiment on HCT116 cells.
For the compound `O=C(Nc1ccc(NS(=O)(=O)CCO)cc1N1CCC2(CC1)CC2)c1cc2c(c(N3CCC(F)(F)CC3)n1)OCC2` [Compound 97], the IC50 in experiment [1] was at most 100 nM; in the experiment on HT-29 cells, 57 nM; with HCT116 cells, above 10000 nM.
The corresponding values for `O=C(Nc1cc(N2CCC(F)(F)CC2)c2ocnc2c1)c1ccc(NS(=O)(=O)CCO)cc1N1CCC2(CC1)CC2` [Compound 513] are at most 100 nM, 71 nM and above 10000 nM.
In the case of `O=C(Nc1cc2c(c(OC3CCC3)n1)OCC2)c1ccc(NS(=O)(=O)CCO)cc1N1CCC2(CC1)CC2` [Compound 71], the values for the IC50 (in experiment [1]; in the experiment with HT-29 cells; with HCT116 cells) were at most 100 nM, 56 nM and above 10000 nM, respectively.
The corresponding values for `O=C(Nc1cc2cc[nH]c2c(N2CCC(F)(F)CC2)n1)c1ccc(NS(=O)(=O)CCO)cc1N1CCC2(CC1)CC2` [Compound 522] are at most 100 nM, 69 nM and 8190 nM.
As for `O=C(Nc1cc2c(c(OC3CCC3)c1)OCC2)c1ccc(NS(=O)(=O)CCO)cc1N1CCC2(CC1)CC2` [Compound 7], the results for the half-maximal inhibitory concentration (IC50) (in experiment [1]; with HT-29 cells; in the experiment on HCT116 cells) were at most 100 nM, 73 nM and above 10000 nM, respectively.
As to `O=C(Nc1ccc(S(=O)(=O)NCCO)cc1N1CCC2(CC1)CC2)c1cc2c(c(N3CCC(F)(F)CC3)c1)OCC2` [Compound 49], the results for the IC50 (in experiment [1]; with HT-29 cells; in the experiment on HCT116 cells) were at most 100 nM, 61 nM and above 10000 nM, respectively.
For `O=C(Nc1cc2c(c(N3CCC(F)(F)CC3)c1)OCCC2)c1ccc(NS(=O)(=O)CCO)cc1N1CCC2(CC1)CC2` [Compound 539], the figures for the half-inhibitory concentration (IC50) (in experiment [1]; in the experiment with HT-29 cells; with HCT116 cells) were at most 100 nM, 43 nM and above 10000 nM, respectively.
The corresponding values for `C[C@@H]1CN(c2nc(NC(=O)c3ccc(NS(=O)(=O)CCO)cc3N3CCC4(CC3)CC4)cc3c2OCC3)CCO1` [Compound 66] are at most 100 nM, 85 nM and above 10000 nM.
For the compound `O=C(Nc1ccc(NS(=O)(=O)CCO)cc1N1CCC2(CC1)CC2)c1cc2ccoc2c(N2CC3CC3C2)n1` (centres unmarked) [Compound 234], the IC50 in experiment [1] was at most 100 nM.
Take `O=C(Nc1ccc(S(=O)(=O)NCCO)cc1N1CCC2(CC1)CC2)c1cc2ccoc2c(OC2CCC2)n1` [Compound 247]: in experiment [1], the IC50 was at most 100 nM.
Still for that read-out and setting: under `O=C(Nc1ccc(S(=O)(=O)NCCO)cc1N1CCC2(CC1)CC2)c1cc2c(c(N3CC(F)(F)C3)c1)OCC2` [Compound 52] stands at most 100 nM; under `C[C@@H](CO)S(=O)(=O)Nc1ccc(C(=O)Nc2cc3c(c(N4CCC(F)(F)CC4)n2)N(C)CC3)c(C2CCC3(CC2)CC3)c1` [Compound 333], at most 100 nM; under `CN1CCc2cc(NC(=O)c3ccc(NS(=O)(=O)CCO)cc3N3CCC4(CC3)CC4)cc(N3CC4CC4C3)c21` (centres unmarked) [Compound 266], at most 100 nM.
`Cn1ccc2cc(C(=O)Nc3ccc(S(=O)(=O)NCCO)cc3N3CCC4(CC3)CC4)nc(N3CCOCC3)c21` [Compound 508]: the IC50 in experiment [1] is at most 100 nM.
For the compound `O=C(Nc1ccc(NS(=O)(=O)CCO)cc1N1CCC2(CC1)CC2)c1cc2ccoc2c(OC2CCC2)n1` [Compound 231], the IC50 in experiment [1] is at most 100 nM.
For `C[C@H]1CN(c2nc(NC(=O)c3ccc(NS(=O)(=O)CCO)cc3N3CCC4(CC3)CC4)cc3c2OCC3)CCO1` [Compound 67], the values for the IC50 (in experiment [1]; in the experiment with HCT116 cells) were at most 100 nM and above 10000 nM, respectively.
With `O=C(Nc1cc2c(c(N3CCC(F)(F)CC3)n1)OCO2)c1ccc(NS(=O)(=O)CCO)cc1N1CCC2(CC1)CC2` [Compound 538], the 50% inhibitory concentration (IC50) in experiment [1] was at most 100 nM.
Consider `O=C(Nc1cc(N2CCC(F)(F)CC2)c2ncsc2c1)c1ccc(NS(=O)(=O)CCO)cc1N1CCC2(CC1)CC2` [Compound 519], for which, in experiment [1], the concentration for half-maximal inhibition (IC50) is at most 100 nM.
On to `C[C@@H](CO)S(=O)(=O)Nc1ccc(C(=O)Nc2cc3c(c(N4CCC(F)(F)CC4)n2)OCC3)c(N2CCC3(CC2)CC3)c1` [Compound 77], for which the IC50 in experiment [1] is at most 100 nM.
Still for that read-out and setting: under `Cn1ccc2cc(C(=O)Nc3ccc(NS(=O)(=O)CCO)cc3N3CCC4(CC3)CC4)cc(OCCC(F)(F)F)c21` [Compound 421] stands at most 100 nM.
Same read-out and setting: under `C[C@@H]1CN(c2cc(NC(=O)c3ccc(S(=O)(=O)N[C@@H](C)CO)cc3N3CCC4(CC3)CC4)cc3ccn(C)c23)CCO1` [Compound 415] stands at most 100 nM.
The same measure, in the same setting: under `Cn1ccc2cc(C(=O)Nc3ccc(NS(=O)(=O)CCO)cc3N3CCC4(CC3)CC4)cc(N3CCC(F)(F)CC3)c21` [Compound 417] stands at most 100 nM; under `CC1(F)CCN(c2nc(NC(=O)c3ccc(S(=O)(=O)NCCO)cc3N3CCC4(CC3)CC4)cc3c2OCC3)C1` (centres unmarked) [Compound 88], at most 100 nM.
For `O=C(Nc1cc2c(c(OCCC(F)(F)F)n1)OCC2)c1ccc(S(=O)(=O)NCCO)cc1N1CCC2(CC1)CC2` [Compound 85], the IC50 in experiment [1] is at most 100 nM.
Regarding `C[C@@H]1CN(c2cc(C(=O)Nc3ccc(NS(=O)(=O)[C@@H](C)CO)cc3N3CCC4(CC3)CC4)cc3c2OCC3)CCO1` [Compound 47], in experiment [1], the IC50 is at most 100 nM.
For the compound `C[C@H]1CN(c2cc(NC(=O)c3ccc(S(=O)(=O)NCCO)cc3N3CCC4(CC3)CC4)cc3c2OCC3)CCO1` [Compound 19], the IC50 in experiment [1] is at most 100 nM.
As for `CN1CCc2cc(C(=O)Nc3ccc(S(=O)(=O)NCCO)cc3N3CCC4(CC3)CC4)nc(NC(C)(C)CO)c21` [Compound 379], the IC50 in experiment [1] is at most 100 nM.
